From a melting point compilation (Tetko et al.; mined from patent text by program, amines drawn as free bases though some values may be those of a salt) come the findings set out here.

Residues, ends and D or L forms follow the SMILES beside them.

The compound `c1csc(-c2ccc(-c3cccs3)nc2)c1` showed a melting point of 150 °C.
The value for `COc1ccc(C(=O)Nc2cnccc2Cl)cc1OC1CCCC1` was 130 to 132 °C; that for `O=c1[nH]c2cc(Cl)ccc2c(O)c1Sc1ccccc1Br` was more than 300 °C.
Take `COc1ccc(-n2cnc3ccc(-c4nnc(SCc5cccc(F)c5)o4)cc32)cc1`: the melting point is 155 to 156 °C.
For the compound `CCCc1nc2c(C)ccc(OCc3ccccc3)c2[nH]1`, the melting point was in the range of 192 to 194 °C.
On to `COc1cc(N)c(Cl)cc1C(=O)NCC1CCCN1C1CCCCC1` (stereo not drawn), for which the melting point is 123 to 124 °C.
`Cc1csc(NC(=O)C2=C(O)c3ccc4ccccc4c3S(=O)(=O)N2C)n1`: the melting point was 177 °C.
As to `C#CCCOc1cc(N2C(=O)CC(C(F)(F)F)CC2=O)c(F)cc1Cl`, the melting point was 89 to 91 °C.
Regarding `Cn1cnc(C(c2ccc(Cl)cc2)c2ccc3c(c2)c(-c2ccccc2)cc(=O)n3C)c1` (stereo not drawn), the melting point amounted to 150 °C.
As to `CN(C)c1ccc(N(C)C(=O)Cn2c(-c3ccc(Cl)cc3)nc3cccnc32)cc1`, the melting point is 152 to 155 °C.
The value for `C=CCOc1cc(-c2nn3c(c2Cl)CCCC3)c(F)cc1Cl` was 91 to 92 °C.
Next, `CCOC(=O)CCN=c1sc2ccccc2s1`: 61 to 62 °C; `Nc1ccc2oc(Cc3ccccc3)cc2c1`: less than 50 °C; `Cc1nn(C)c(C(=O)N(C)C)c1Nc1ccccc1[N+](=O)[O-]`: 144 to 146 °C.
Next, `CCCn1c(=O)c2[nH]c(/C=C/c3cccs3)nc2n(CCC)c1=O`: 270 °C; `O=C(NCCCCOc1ccc(-n2ccnc2)cc1)c1cccc2ccccc12`: 157 to 159 °C; `CCOC(=O)c1nc2ccccc2nc1C`: 74 to 75 °C.
In the case of `Cc1nc2n(C)c(C)cn2c(=O)c1CCBr`, the melting point came out at 125 °C.
Take `CCOC(=O)c1ccc2oc(CC)nc2c1`: the melting point was 35 to 37 °C.
The value for `COc1ccccc1-c1n[nH]c2c(Cl)cc(C)nc12` was 184 to 190 °C.
Next, `C[C@@H](Cn1ncc2ccc3c(c21)C[C@@H](OCC(N)=O)CO3)N=[N+]=[N-]`: 94 to 97 °C.
As to `CCOC(=O)C(O)c1cc(Br)cn1CCOC(C)=O` (stereo not drawn), the melting point was 59 °C.
In the case of `CCC(=O)c1cnc2c(O)cccc2c1Nc1ccccc1C`, the melting point was in the range of 125 to 128 °C.
As for `O=CNC1CCN(c2ncc3ncnc(Nc4ccc(F)c(Cl)c4)c3n2)CC1`, the melting point fell in the range of 201 to 203 °C.
Next, `O=C(OCN1C(=O)CN(CCN2CC(=O)N(COC(=O)c3cccs3)C(=O)C2)CC1=O)c1cccs1`: 158 to 160 °C.
Next, `O=C1CC2(SCCS2)C(=O)N1`: 112 to 115 °C; `O=C1NS(=O)(=O)CCC1c1ccc([N+](=O)[O-])cc1F` (stereo not drawn): 218 to 219 °C.
`C#CCn1ncc(-c2ccc(S(C)(=O)=O)cc2)c(-c2ccc(F)cc2)c1=O`: the melting point was in the range of 196 to 198 °C.
With `Cc1nc(-n2ccc(OCc3ccccc3)cc2=O)n(C)c1C(=O)NCc1ccccc1`, the melting point is 232 to 233 °C.
The value for `COC(Cc1ccc(OCCc2nc(-c3ccccc3)oc2C)c2ccccc12)C(=O)O` (stereo not drawn) was 128 to 130 °C; that for `c1ccc(CCN2Cc3sccc3C(c3ccccc3)C2)cc1` (stereo not drawn) was 110 °C; that for `CCC1(Cl)Cc2cc(OCC(=O)OC)c(Cl)c(Cl)c2C1=O` (stereo not drawn) was 111 °C.
Take `O=C1c2ccc(OC3CC3)cc2CCC1CN1CCC(O)(c2ccccc2)CC1` (stereo not drawn): the melting point was 187 to 189 °C.
The value for `CCOc1ccc(F)cc1C(=O)c1sc2ncccc2c1N` was 130 °C.
The value for `CN(C)c1ccc(C(=O)Nc2cc(C(=O)NCc3ccccc3)ccn2)cc1` was 160 to 165 °C; that for `NS(=O)(=O)c1ccc(NC(=O)CCl)c(Br)c1` was 174 to 175 °C; that for `Cn1cncc1-c1cccc(Nc2ccc3ccccc3n2)c1` was 60 to 65 °C.
Next, `O=C(O)[C@H](Cc1ccc(C(F)(F)F)cc1)[C@H](O)c1ccc(F)cc1` (racemic): 111 to 112 °C; `CCOC(=O)C(C)Oc1ccc(Oc2ccc3cc(Br)ccc3n2)cc1` (stereo not drawn): 85 °C.
In turn, `COc1ccc(C=O)c(O)c1O` had a melting point of 116 to 117 °C.
Next, `NC(=O)NC1COCC1c1ccccc1-n1nc(C(F)(F)F)cc1C(F)(F)F` (stereo not drawn): 198 to 200 °C; `CCOC(=O)C(=O)Cc1ccnc2c1C(=O)c1ccccc1-2`: 196 to 197 °C; `O=C1N(CC2CCCO2)c2ccccc2C12COc1cc3c(cc12)OCC3` (stereo not drawn): 162 to 164 °C.
The value for `Cc1nc2ccc(F)cc2c(=O)n1C1CCC(=O)NC1=O` (stereo not drawn) was 273 to 275 °C.
Next, `CCOC(=O)c1cn(CCCO)c(=O)c2cc(Cl)ccc12`: 193 °C; `CCCN(Cc1ccc(-c2ccccc2-c2nc(=O)o[nH]2)cc1)c1nn(C)cc1C(=O)O`: 124 to 126 °C.
`Cc1ccc2c(=O)cc(C(N)=O)oc2c1` registered a melting point of more than 300 °C.
`O=C(O)[C@]1(c2ccc(Br)cc2)CC1(c1ccccc1)c1ccccc1` returned a melting point of 180 to 182 °C.
`COCc1ccc(C(=O)O)c2ccccc12` had a melting point of 133 to 134 °C.
Next, `CC(C)S(=O)(=O)Nc1cccc(C=C2c3ccccc3CCc3ccccc32)c1`: 188 °C; `CCCCN1CCC(CNC(=O)c2cc(Cl)c(N)n3cc(C)nc23)CC1`: 188 to 191 °C.
Turning to `CCOC(=O)[C@@H]1Cc2ccc([N+](=O)[O-])cc2CN1`, the melting point is 94 to 95 °C.
Next, `O=[N+]([O-])c1ccc2c(c1)C(c1ccccn1)=CC(C(F)(F)F)(C(F)(F)F)O2`: 105 to 107 °C; `O=c1ccn(C2CC(O)C(CNC(c3ccccc3)(c3ccccc3)c3ccccc3Cl)O2)c(=O)[nH]1` (stereo not drawn): 129 to 131 °C; `CC(C)(C)OC(=O)N1[C@@H](Cc2cccc(C3CCC3)c2)C(=O)O[C@H](c2ccccc2)[C@@H]1c1ccccc1`: 145 to 147 °C.
In the case of `Fc1ccc(-c2nc(SC(F)(F)C(F)F)[nH]c2-c2ccncc2)cc1`, the melting point was 242 to 248 °C.
Turning to `COc1ccc(C2(O)CCC3CN(Cc4ccccc4)CCC3C2)cc1` (stereo not drawn), the melting point fell in the range of 38 to 40 °C.
Next, `CC(C)(C)OC(=O)[C@@H](C(N)c1ccccc1)[C@@H](O)C[C@@H](Cc1ccccc1)c1ncc2n1C(O)C(C)(C)C2=O` (stereo partly drawn): 88 to 90 °C; `N#Cc1ccc(OCc2ccc3c(c2)OCO3)cc1F`: 139 to 140 °C; `O=C(O)CNc1csc2ccccc12`: 195 to 198 °C.
`NC(=O)CN1C(=O)[C@H](NC(=O)c2cc3ccccc3[nH]2)[C@H](c2ccccc2)Sc2cc(Cl)ccc21` (relative stereo): the melting point lay within 174 to 178 °C.
As to `COc1ccccc1-c1n[nH]c2ccccc12`, the melting point came to 99 °C.
For the compound `CC(C)c1nc(CN(C)C(=O)N[C@@H](C)C(=O)N[C@@H](Cc2ccccc2)C[C@H](O)[C@H](Cc2ccccc2)NC(=O)OCc2cncs2)cs1`, the melting point was 56 to 58 °C.
Take `CCC(=O)NN=C(c1ccc(Cl)cc1)c1ccc(NS(=O)(=O)c2ccccc2)cc1`: the melting point is 238 to 240 °C.
The value for `Cc1cc(C2=NOC(c3cc(Cl)cc(Cl)c3)(C(F)(F)F)C2)ccc1C(=O)Nc1ncc(Cl)cn1` (stereo not drawn) was 137 to 141 °C; that for `CCOP(=O)(Cc1ccc(NC(=O)/C=C/c2cnoc2-c2ccccc2)cc1)OCC` was 173 to 174 °C; that for `O=C(O)Cc1ccc(C(=O)c2cccc(C(F)(F)F)c2)s1` was 120 °C.
Compound `O=CNc1nc(C(=NOC(=O)C(Cl)Cl)C(=O)O)ns1` returned a melting point of 123 °C.
`OCc1ccc2c(Cl)cccc2c1` displayed a melting point of 72 to 75 °C.
`O=C(O)c1cc2ccc(OCc3ccccc3)cc2o1` yielded a melting point of 199 to 201 °C.
Compound `Nc1cccnc1Nc1ccc(Cl)cc1C(=O)c1ccccc1Cl` came in with a melting point of 162 to 164 °C.
`NC(=O)CCC(N)C(=O)NCC(=O)NCC(=O)NC(CO)C(=O)NC(CC(N)=O)C(=O)NC(Cc1ccccc1)C(N)=O` (stereo not drawn) (H-QGGSNF-NH2; configuration not given here) yielded a melting point of 202 to 204 °C.
Next, `CC(C)(N)c1ccc(-c2nc(Nc3ccc(CCn4ccnc4)cc3)ncc2Cl)cc1F`: 112 to 120 °C; `CNn1c(C)nc(N2CCc3ccccc3CC2)c(C#N)c1=O`: more than 200 °C; `C=CCNC(=S)Cc1ccccn1`: 67 to 68 °C.
Next, `CCCN(CC)C(=O)c1ccc(CN2C(=O)C(c3ccccc3Cl)(N(C)C)c3cc(Cl)ccc32)cc1` (stereo not drawn): 208 °C; `Cc1ccc2cc(NS(C)(=O)=O)ccc2n1`: 151 to 153 °C; `CCN1C[C@@H](O)[C@H](Oc2ccc(C(C)=O)cc2OC)C1` (relative stereo): 121 to 123 °C.
`COc1cc(Nc2c(C#N)cnc3cc(-c4cccc5ccccc45)ccc23)c(Cl)cc1Cl` yielded a melting point of 192 to 193 °C.
Regarding `Cc1nc2ccc3c(c2nc1C)OC(CN1CC=C(c2c[nH]c4ccc(F)cc24)CC1)CO3` (stereo not drawn), the melting point lay within 138 to 141 °C.
In turn, `COc1ccc(Cc2ccc(NC3=NCCN3)cc2)cc1` yielded a melting point of 114 to 116 °C.
Compound `COc1ccc(CC(=O)NCCc2cc3c(cc2C)CCC3)cc1OC` registered a melting point of 144 to 145 °C.
Next, `Cc1noc(C)c1-c1cn(Cc2ccccc2)c(=O)c2ncccc12`: 168 to 170 °C; `O=c1oc2cc(Cl)cnc2n1CO`: 137 to 139 °C; `Cc1cccc(-c2ccc3ccc(N)nc3n2)c1`: 180 °C.
The value for `Cc1c(C)c2c(c(C)c1N)C(c1ccc(C(C)C)cc1)C1(CCN(C)CC1)O2` (stereo not drawn) was 123 to 124 °C.
The value for `COc1ccc([N+](=O)[O-])cc1CBr` was 78 °C.
The compound `COc1ccc(-n2nc3c(cc2=O)CCSc2sc(C)cc2-3)cc1` registered a melting point of 145 to 146 °C.

One may read the melting point as the temperature, or range, at which the solid turns liquid.
